Test results as given in ChEMBL document CHEMBL3885861, “Open TG-GATES”.

Species on record: Rattus norvegicus
Test: Open TG-GATES - Regimen: Daily Repeat
Assay type: toxicity, organism-based, Sprague-Dawley
Set-up: regimen Daily Repeat, gender Male, age 6 weeks
Settings: in vivo, po, 1000 mg/kg, route gavage, dose level High; for APTT / Bas / Eos / Fbg / Hb / Ht / Lym / MCH / MCHC / MCV / Mono / Neu / PT / Plat / RBC / Ret / WBC: tissue Blood; for KIDNEY_L / KIDNEY_R / KIDNEY_TOTAL: tissue Kidney; for LIVER: tissue Liver; for A/G / ALP / ALT / AST / BUN / CRE / Ca / Cl / DBIL / GLC / IP / K / LDH / Na / PL / RALB / TBIL / TC / TG / TP / gamma-GTP: tissue Plasma

In the case of `CC[C@@H](CO)NCCN[C@@H](CC)CO` [ETHAMBUTOL], the TERMINAL_BW (72 h, time 3 day) was 233.6 g, the APTT (72 h, time 3 day) was 19.9 s and the Bas (72 h, time 3 day) was 0%. For the same compound, the Eos (72 h, time 3 day) was 0.8%, the Fbg (72 h, time 3 day) was 303.8 mg/dL and the Hb (72 h, time 3 day) was 13.5 g/dL. The Ht (72 h, time 3 day) was 38.6%, the Lym (72 h, time 3 day) was 77.8% and the MCH (72 h, time 3 day) was 21.4 pg. It also gave an MCHC (72 h, time 3 day) of 35%, an MCV (72 h, time 3 day) of 61 fL and a Mono (72 h, time 3 day) of 3.2%. For the same compound, the Neu (72 h, time 3 day) was 16.6%, the PT (72 h, time 3 day) was 16.3 s and the Plat (72 h, time 3 day) was 122.5 x10_4/uL. For the same compound, the RBC (72 h, time 3 day) was 633.2 x10_4/ul, the Ret (72 h, time 3 day) was 4.8% and the WBC (72 h, time 3 day) was 84.1 x10_2/uL. The KIDNEY_L (72 h, time 3 day) was 1 g, the KIDNEY_R (72 h, time 3 day) was 1.1 g and the KIDNEY_TOTAL (72 h, time 3 day) was 2.1 g. For the same compound, the LIVER (72 h, time 3 day) was 12.7 g, the A/G (72 h, time 3 day) was 1.2 and the ALP (72 h, time 3 day) was 1656 IU/L. For the same compound, the ALT (72 h, time 3 day) was 49 IU/L, the AST (72 h, time 3 day) was 88.2 IU/L and the BUN (72 h, time 3 day) was 21 mg/dL. It also gave a CRE (72 h, time 3 day) of 0.2 mg/dL, a Ca (72 h, time 3 day) of 10.6 mg/dL and a Cl (72 h, time 3 day) of 108 meq/L. The DBIL (72 h, time 3 day) was 0.002 mg/dL, the GLC (72 h, time 3 day) was 177.8 mg/dL and the IP (72 h, time 3 day) was 8.1 mg/dL. For the same compound, the K (72 h, time 3 day) was 4 meq/L, the LDH (72 h, time 3 day) was 160.8 IU/L and the Na (72 h, time 3 day) was 140 meq/L. It also gave a PL (72 h, time 3 day) of 163.8 mg/dL, an RALB (72 h, time 3 day) of 3 g/dL and a TBIL (72 h, time 3 day) of 0.026 mg/dL. It also gave a TC (72 h, time 3 day) of 99.6 mg/dL, a TG (72 h, time 3 day) of 41.2 mg/dL and a TP (72 h, time 3 day) of 5.5 g/dL. It also gave a gamma-GTP (72 h, time 3 day) of 1.6 IU/L, a TERMINAL_BW ([…], time 7 day) of 220.6 g and a TERMINAL_BW ([…], time 14 day) of 208.8 g. For the same compound, the TERMINAL_BW ([…], time 28 day) was 151.9 g, the APTT ([…], time 7 day) was 19.7 s and the Bas ([…], time 7 day) was 0%. It also gave an Eos ([…], time 7 day) of 0.8%, a Fbg ([…], time 7 day) of 167.4 mg/dL and a Hb ([…], time 7 day) of 16.1 g/dL. The Ht ([…], time 7 day) was 46.3%, the Lym ([…], time 7 day) was 73.8% and the MCH ([…], time 7 day) was 20.8 pg. It also gave an MCHC ([…], time 7 day) of 34.7%, an MCV ([…], time 7 day) of 59.8 fL and a Mono ([…], time 7 day) of 3.4%. The Neu ([…], time 7 day) was 19.4%, the PT ([…], time 7 day) was 19.6 s and the Plat ([…], time 7 day) was 116.6 x10_4/uL. For the same compound, the RBC ([…], time 7 day) was 774.8 x10_4/ul, the Ret ([…], time 7 day) was 2% and the WBC ([…], time 7 day) was 71 x10_2/uL. The APTT ([…], time 14 day) was 21.5 s, the Bas ([…], time 14 day) was 0% and the Eos ([…], time 14 day) was 1.2%. The Fbg ([…], time 14 day) was 228 mg/dL, the Hb ([…], time 14 day) was 15.5 g/dL and the Ht ([…], time 14 day) was 44.6%. It also gave a Lym ([…], time 14 day) of 83.2%, an MCH ([…], time 14 day) of 19.4 pg and an MCHC ([…], time 14 day) of 34.8%. It also gave an MCV ([…], time 14 day) of 55.6 fL, a Mono ([…], time 14 day) of 2.2% and a Neu ([…], time 14 day) of 12.4%. It also gave a PT ([…], time 14 day) of 18.1 s, a Plat ([…], time 14 day) of 126 x10_4/uL and an RBC ([…], time 14 day) of 800.4 x10_4/ul. The Ret ([…], time 14 day) was 0.5%, the WBC ([…], time 14 day) was 95.8 x10_2/uL and the APTT ([…], time 28 day) was 27.6 s. For the same compound, the Bas ([…], time 28 day) was 0%, the Eos ([…], time 28 day) was 0.3% and the Fbg ([…], time 28 day) was 252 mg/dL. The Hb ([…], time 28 day) was 17.2 g/dL, the Ht ([…], time 28 day) was 49.9% and the Lym ([…], time 28 day) was 41.3%. The MCH ([…], time 28 day) was 18 pg, the MCHC ([…], time 28 day) was 34.6% and the MCV ([…], time 28 day) was 52 fL. The Mono ([…], time 28 day) was 8.3%, the Neu ([…], time 28 day) was 46.7% and the PT ([…], time 28 day) was 19.9 s. For the same compound, the Plat ([…], time 28 day) was 105.7 x10_4/uL, the RBC ([…], time 28 day) was 960 x10_4/ul and the Ret ([…], time 28 day) was 0.7%. The WBC ([…], time 28 day) was 102.9 x10_2/uL, the KIDNEY_L ([…], time 7 day) was 1 g and the KIDNEY_R ([…], time 7 day) was 1.1 g. For the same compound, the KIDNEY_TOTAL ([…], time 7 day) was 2.1 g, the KIDNEY_L ([…], time 14 day) was 1 g and the KIDNEY_R ([…], time 14 day) was 1 g. The KIDNEY_TOTAL ([…], time 14 day) was 2 g, the KIDNEY_L ([…], time 28 day) was 0.9 g and the KIDNEY_R ([…], time 28 day) was 0.9 g. For the same compound, the KIDNEY_TOTAL ([…], time 28 day) was 1.8 g, the LIVER ([…], time 7 day) was 10.6 g and the LIVER ([…], time 14 day) was 9.2 g. The LIVER ([…], time 28 day) was 6.7 g, the A/G ([…], time 7 day) was 1.2 and the ALP ([…], time 7 day) was 1664.8 IU/L. The ALT ([…], time 7 day) was 76.6 IU/L, the AST ([…], time 7 day) was 165.4 IU/L and the BUN ([…], time 7 day) was 22.2 mg/dL. It also gave a CRE ([…], time 7 day) of 0.2 mg/dL, a Ca ([…], time 7 day) of 9.3 mg/dL and a Cl ([…], time 7 day) of 107.4 meq/L. For the same compound, the DBIL ([…], time 7 day) was 0.3 mg/dL, the GLC ([…], time 7 day) was 145.2 mg/dL and the IP ([…], time 7 day) was 8.3 mg/dL. It also gave a K ([…], time 7 day) of 4.6 meq/L, an LDH ([…], time 7 day) of 334 IU/L and a Na ([…], time 7 day) of 138.8 meq/L. It also gave a PL ([…], time 7 day) of 108 mg/dL, an RALB ([…], time 7 day) of 2.4 g/dL and a TBIL ([…], time 7 day) of 0.3 mg/dL. The TC ([…], time 7 day) was 59.6 mg/dL, the TG ([…], time 7 day) was 15.6 mg/dL and the TP ([…], time 7 day) was 4.3 g/dL. For the same compound, the gamma-GTP ([…], time 7 day) was 1.4 IU/L, the A/G ([…], time 14 day) was 1.1 and the ALP ([…], time 14 day) was 1208.4 IU/L. The ALT ([…], time 14 day) was 53 IU/L, the AST ([…], time 14 day) was 108.6 IU/L and the BUN ([…], time 14 day) was 21.8 mg/dL. For the same compound, the CRE ([…], time 14 day) was 0.2 mg/dL, the Ca ([…], time 14 day) was 9.4 mg/dL and the Cl ([…], time 14 day) was 108.6 meq/L. It also gave a DBIL ([…], time 14 day) of 0.068 mg/dL, a GLC ([…], time 14 day) of 155.2 mg/dL and an IP ([…], time 14 day) of 6.8 mg/dL. For the same compound, the K ([…], time 14 day) was 4.1 meq/L, the LDH ([…], time 14 day) was 178.8 IU/L and the Na ([…], time 14 day) was 139.4 meq/L. For the same compound, the PL ([…], time 14 day) was 112.6 mg/dL, the RALB ([…], time 14 day) was 2.4 g/dL and the TBIL ([…], time 14 day) was 0.08 mg/dL. The TC ([…], time 14 day) was 61.6 mg/dL, the TG ([…], time 14 day) was 19 mg/dL and the TP ([…], time 14 day) was 4.6 g/dL. It also gave a gamma-GTP ([…], time 14 day) of 3.6 IU/L, an A/G ([…], time 28 day) of 1.1 and an ALP ([…], time 28 day) of 564 IU/L. For the same compound, the ALT ([…], time 28 day) was 45.3 IU/L, the AST ([…], time 28 day) was 342 IU/L and the BUN ([…], time 28 day) was 34 mg/dL. For the same compound, the CRE ([…], time 28 day) was 0.2 mg/dL, the Ca ([…], time 28 day) was 9.8 mg/dL and the Cl ([…], time 28 day) was 116.7 meq/L. For the same compound, the DBIL ([…], time 28 day) was 0.1 mg/dL, the GLC ([…], time 28 day) was 321.7 mg/dL and the IP ([…], time 28 day) was 10.9 mg/dL. It also gave a K ([…], time 28 day) of 4.3 meq/L, an LDH ([…], time 28 day) of 600.7 IU/L and a Na ([…], time 28 day) of 148 meq/L. For the same compound, the PL ([…], time 28 day) was 102 mg/dL, the RALB ([…], time 28 day) was 2.9 g/dL and the TBIL ([…], time 28 day) was 0.2 mg/dL. For the same compound, the TC ([…], time 28 day) was 60 mg/dL, the TG ([…], time 28 day) was 22.3 mg/dL and the TP ([…], time 28 day) was 5.5 g/dL. The gamma-GTP ([…], time 28 day) was 5.7 IU/L.
